Test results from article PMC12368478, “Targeting Ubiquitin‐Specific Protease 7 with Novel 5‐Amino‐Pyrazole Inhibitors: Design, Synthesis, and Biological Evaluation” (Chemmedchem, 2025).
“And” between values parts separate entries of the source, which are not always exact repeats. Identical values can stand only once.

How the values were obtained:
[1] = test system: A549 lung adenocarcinoma; assay: MTT assay, A549; format: cell-based; conditions: A549, 10 μM, 48 h
Description: (§1) To evaluate the cytotoxicity of the novel USP‐7 inhibitors, compounds 1a–d were preliminary screened at a fixed concentration of 10 μM against eight different cancer cell lines (namely, MCF7 breast adenocarcinoma, SKOV‐3 ovarian adenocarcinoma, Hep‐G2 hepatocellular carcinoma, SK‐Mel28 cutaneous melanoma, MDA‐MB‐231 breast adenocarcinoma, SK‐BR3 breast adenocarcinoma, HeLa cervix epithelioid carcinoma, and A549 lung adenocarcinoma) as well as nonmutated human embryonic fibroblasts (GM‐6114). Cisplatinum (Cis‐Pt) was used as the reference compound.
(§2) To perform the MTT assay, SK‐BR3 (breast adenocarcinoma, Biologic Bank and Cell Factory, IRCCS Policlinico San Martino, Genoa, Italy), MCF‐7 (breast adenocarcinoma, Biologic Bank and Cell Factory, IRCCS Policlinico San Martino, Genoa, Italy), SK‐Mel28 (skin melanoma, Biologic Bank and Cell Factory, IRCCS Policlinico San Martino, Genoa, Italy), Hep‐G2 (hepatocellular carcinoma, ATCC, Manassas, VA), SKOV‐3 (ovarian adenocarcinoma, ATCC, Manassas, VA), MDA‐MB‐231 (breast adenocarcinoma, Biologic Bank and Cell Factory, IRCCS Policlinico San Martino, Genoa, Italy), HeLa (cervical adenocarcinoma, Biologic Bank and Cell Factory, IRCCS Policlinico San Martino, Genoa, Italy), A549 (lung adenocarcinoma, ATCC, Manassas, VA), and GM‐6114 (normal human embryonic fibroblast, ATCC, Manassas, VA) cell lines were cultured in Dulbecco's modified eagle medium (DMEM added with 10% Fetal bovine serum, 2 mM Glutamine, and 1% pen‐strep) and incubated in a humidified environment at 37 °C with 5% CO2. Reagents were acquired from EuroClone (Milan, Italy). All chemical compounds were dissolved in DMSO to give a 10 mM stock solution. Then, after an intermediate dilution in growth medium, they were added to the cultured cells at a final working concentration of 10 μM and incubated for 48 h. At the end of the incubation, 30 μL of MTT (3‐(4,5‐dimethyl‐2‐thiazolyl)‐2,5‐diphenyl‐2H‐tetrazolium bromide) at a concentration of 2 mg mL^−1 in phosphate buffered saline (PBS) were added into each well and further incubated for 4 h. Finally, the supernatants were removed and 100 μL well of DMSO were added to each well to dissolve the Formazan precipitates. After 20 min, plates were read at 570 nm. Results are expressed as the percentage of the control samples where cells have been treated with the same amount of DMSO but without any chemical compound. The assay was repeated three times, and a single compound was tested six times. Means and standard deviations were calculated.

[2] = test system: HeLa cervix epithelioid carcinoma; assay: MTT assay, HeLa; format: cell-based; conditions: 10 μM, 48 h
Description: as §1, §2

[3] = test system: Hep‐G2 hepatocellular carcinoma; assay: MTT assay, Hep‐G2; format: cell-based; conditions: Hep‐G2, 10 μM, 48 h
Description: as §1, §2

[4] = test system: MCF7 breast adenocarcinoma; assay: MTT assay, MCF7; format: cell-based; conditions: MCF7, 10 μM, 48 h
Description: as §1, §2

[5] = test system: MDA‐MB‐231 breast adenocarcinoma; assay: MTT assay, MDA‐MB‐231; format: cell-based; conditions: MDA‐MB‐231, 10 μM, 48 h
Description: as §1, §2

[6] = test system: SK‐BR3 breast adenocarcinoma; assay: MTT assay, SK‐BR3; format: cell-based; conditions: SK‐BR3, 10 μM, 48 h
Description: as §1, §2

[7] = test system: SK‐Mel28 cutaneous melanoma; assay: MTT assay, SK‐Mel28; format: cell-based; conditions: SK‐Mel28, 10 μM, 48 h
Description: as §1, §2

[8] = test system: SKOV‐3 ovarian adenocarcinoma; assay: MTT assay, SKOV‐3; format: cell-based; conditions: SKOV‐3, 10 μM, 48 h
Description: as §1, §2

[9] = target: T1, recombinant USP‐7 (Homo sapiens, UniProt Q93009); assay: USP‐7 fluorescence-based enzymatic assay (Ub‐AMC); format: biochemical; conditions: recombinant USP‐7, Ubiquitin–AMC substrate, 30 min preincubation; average of three separate experiments
T1 construct: purchased BPS Bioscience 79,256
T1 sequence (Q93009 whole entry): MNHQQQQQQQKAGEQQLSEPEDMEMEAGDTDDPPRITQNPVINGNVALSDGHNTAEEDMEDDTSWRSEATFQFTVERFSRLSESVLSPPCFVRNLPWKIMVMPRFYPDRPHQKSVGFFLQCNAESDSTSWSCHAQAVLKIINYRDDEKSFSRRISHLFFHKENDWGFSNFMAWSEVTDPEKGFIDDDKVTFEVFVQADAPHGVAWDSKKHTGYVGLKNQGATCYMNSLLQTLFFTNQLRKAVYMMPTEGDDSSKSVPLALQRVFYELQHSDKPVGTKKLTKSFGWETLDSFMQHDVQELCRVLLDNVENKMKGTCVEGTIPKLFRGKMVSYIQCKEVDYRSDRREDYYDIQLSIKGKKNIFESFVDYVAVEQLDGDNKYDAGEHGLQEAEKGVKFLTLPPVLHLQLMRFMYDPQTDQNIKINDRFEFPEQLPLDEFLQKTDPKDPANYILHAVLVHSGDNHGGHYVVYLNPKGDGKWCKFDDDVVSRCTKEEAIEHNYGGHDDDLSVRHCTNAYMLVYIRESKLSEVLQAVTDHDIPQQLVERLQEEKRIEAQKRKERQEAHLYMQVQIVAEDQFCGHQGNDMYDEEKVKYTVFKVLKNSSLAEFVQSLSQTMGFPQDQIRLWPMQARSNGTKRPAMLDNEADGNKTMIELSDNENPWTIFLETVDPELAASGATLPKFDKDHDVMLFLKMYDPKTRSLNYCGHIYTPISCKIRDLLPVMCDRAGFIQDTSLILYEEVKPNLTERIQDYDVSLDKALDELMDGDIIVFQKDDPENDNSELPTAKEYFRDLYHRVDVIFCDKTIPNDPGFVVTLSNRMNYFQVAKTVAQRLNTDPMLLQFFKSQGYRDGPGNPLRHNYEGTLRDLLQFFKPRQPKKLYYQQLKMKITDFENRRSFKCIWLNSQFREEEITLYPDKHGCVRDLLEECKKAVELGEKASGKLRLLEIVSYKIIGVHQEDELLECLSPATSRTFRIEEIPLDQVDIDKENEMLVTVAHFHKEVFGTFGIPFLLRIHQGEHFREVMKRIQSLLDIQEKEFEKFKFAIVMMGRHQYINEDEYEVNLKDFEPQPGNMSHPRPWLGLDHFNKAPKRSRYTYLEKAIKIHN
Description: The inhibition efficiency of compounds 1a–d and 2a–d on the USP‐7 enzyme was assessed using a fluorescence‐based enzymatic assay, employing Ubiquitin–AMC as a substrate. In this assay, USP‐7 hydrolyzes Ubiquitin–AMC, leading to an increase in fluorescence signal. To evaluate the inhibitory potential, recombinant USP‐7 was preincubated with varying concentrations of the test compounds before adding the substrate, and fluorescence intensity was subsequently measured. […] Additionally, the elongation of the side chain in compounds 2a–d completely abolished the activity.
In vitro enzymatic inhibition was measured using the USP‐7 inhibitor screening assay kit (catalog #79,256, BPS Bioscience, San Diego, CA, USA) according to the manufacturer's instructions. Briefly, compound stock solutions were prepared in DMSO and diluted tenfold to obtain the working solutions. Then, these solutions and the vehicle control were added to the black 384‐wells plate, together with the USP‐7 enzyme, previously diluted as required by the manufacturer, and incubated at rt for 30 min. Then, the Ub‐AMC substrate was diluted 400‐fold and added to the plate, followed by incubation at rt for 30 min. The final DMSO amount in each well was 1%.

[10] = test system: nonmutated human embryonic fibroblasts (GM‐6114); assay: MTT assay, GM‐6114; format: cell-based; conditions: GM‐6114 healthy fibroblasts, 10 μM, 48 h
Description: as §1, §2

[11] = test system: neuroblastoma HTLA‐230 cells; design: method as in PMID 36780313; conditions: cited from earlier work
[12] = test system: USP‐7; design: method as in PMID 37298148; conditions: in vitro and in‐cell assays, neuroblastoma‐related cells; cited from earlier work
[13] = Parallel artificial membrane permeability assay (PAMPA); format: in vitro ADME; conditions: for LogPe ± SD: PBS pH 7.4, 5 h
Description: The assay was prepared as follows: 300 μL of PBS pH 7.4 (5% DMSO) was placed in the acceptor wells. A phosphatidylcholine (PC) solution was obtained by dissolving and vortexing PC at 1% w/v in dodecane and solubilized using an ultrasound bath until a clear solution was obtained. […] of this solution was deposited on the membrane portion of the donor well. 150 μL of each molecule, at 100–250 μM final concentration (5% DMSO), was pipetted in the […]. The acceptor (Multiscreen transport Receiver Plate, 96‐well, polystyrene, Millipore) and donor plates (Multiscreen Filter Plates, IP, […], clear, hydrophobic PVDF, Millipore) were subsequently assembled and incubated for 5 h under gentle orbital shaking. The experiment was conducted in duplicate. Lucifer yellow was used as a negative control to establish the integrity of the membrane, quantifying its concentration in both acceptor and donor solutions using fluorescence. […] The results are expressed as means ± SEM of at least three independent experiments.

| Compound | IC50 [9] | LogPe ± SD ([13]; 100 μM) | LogPe ± SD ([13]; 250 μM) | membrane permeability (in words) ([13]; 100 and 250 μM) | Cell growth percent [%] [1] | Cell growth percent [%] [2] | Cell growth percent [%] [3] | Cell growth percent [%] [4] | Cell growth percent [%] [5] | Cell growth percent [%] [6] | Cell growth percent [%] [7] | Cell growth percent [%] [8] | Cell growth percent [%] [10] | inhibition of migratory ability [11] | inhibition of USP‐7 enzymatic activity and expression levels [12] |
| --- | --- | --- | --- | --- | --- | --- | --- | --- | --- | --- | --- | --- | --- | --- | --- |
| N.N.[Cl][Pt][Cl] [Cis ‐Pt, Cisplatinum, reference compound] |  |  |  |  | 59.09% | 29.33% | 38.07% | 72.74% | 86.07% | 70.59% | 44.40% | 26.83% |  |  |  |
| CCOC(=O)c1cnn(CC(C)O)c1NC(=O)Nc1cccc(F)c1 (stereo not drawn) [STIRUR‐41, reference compound] | 2.77 ± 0.56 µM |  |  |  | 38.88% | 99.83% | 111.36% | 110.71% | 64.32% | 97.17% | 94.26% | 100.50% | 38.50% | significant inhibition | inhibit both the enzymatic activity of USP‐7 and its expression levels |

The next lines start with results.

| IC50 [9] | LogPe ± SD ([13]; 100 μM) | LogPe ± SD ([13]; 250 μM) | membrane permeability (in words) ([13]; 100 and 250 μM) | Compound | Cell growth percent [%] [1] | Cell growth percent [%] [2] | Cell growth percent [%] [3] | Cell growth percent [%] [4] | Cell growth percent [%] [5] | Cell growth percent [%] [6] | Cell growth percent [%] [7] | Cell growth percent [%] [8] | Cell growth percent [%] [10] | inhibition of migratory ability [11] | inhibition of USP‐7 enzymatic activity and expression levels [12] |
| --- | --- | --- | --- | --- | --- | --- | --- | --- | --- | --- | --- | --- | --- | --- | --- |
| 1.48 ± 0.31 µM |  |  |  | CCOC(=O)c1cnn(CC(C)OC(=O)Nc2cccc(F)c2)c1N (stereo not drawn) [Compound 1b, Ethyl 5‐Amino‐1‐(2‐(((3‐Fluorophenyl)Carbamoyl)Oxy)Propyl)‐1H‐Pyrazole‐4‐Carboxylate] | 39% and 39.06% | 95.63% | 95.70% | 104.08% | 73.53% | 135.91% | 115.09% | 98.78% | 68.07% |  |  |
| 2.19 ± 0.49 µM |  |  |  | CCOC(=O)c1cnn(CC(C)OC(=O)Nc2ccccc2F)c1N (stereo not drawn) [Compound 1a, Ethyl 5‐Amino‐1‐(2‐(((2‐Fluorophenyl)Carbamoyl)Oxy)Propyl)‐1H‐Pyrazole‐4‐Carboxylate] | 104.43% | 105.06% | 97.50% | 109.46% | 106.29% | 98.76% | 95.28% | 102.26% | 105.96% |  |  |
| 1.8 ± 0.39 µM |  |  |  | CCOC(=O)c1cnn(CC(C)OC(=O)Nc2ccc(F)cc2)c1N (stereo not drawn) [Compound 1c, Ethyl 5‐Amino‐1‐(2‐(((4‐Fluorophenyl)Carbamoyl)Oxy)Propyl)‐1H‐Pyrazole‐4‐Carboxylate] | 114.96% | 108.28% | 100.11% | 108.02% | 103.39% | 101.55% | 88.22% | 99.94% | 112.09% |  |  |
| 1.31 ± 0.21 µM | −4.54 ± 0.02 | −4.81 ± 0.00 | highly permeable | CCOC(=O)c1cnn(CC(C)OC(=O)Nc2cccc(C(F)(F)F)c2)c1N (stereo not drawn) [Compound 1d, Ethyl 5‐Amino‐1‐(2‐(((3‐(Trifluoromethyl)Phenyl)Carbamoyl)Oxy)Propyl)‐1H‐Pyrazole‐4‐Carboxylate] | 90.69% | 106.40% | 100.73% | 113.85% | 119.94% | 95.04% | 90.77% | 99.40% | 96.18% |  |  |
